Reference: US20250154144A1 (CHILDREN'S HOSPITAL MEDICAL CENTER, priority 2021, published 2025)
Read-outs that look alike come from different tables or passages of the source.

Key:
MOLM14 D835Y cells = test: cells; type: cell-based; details: 48 hours, Cell Titer Glo, read-out: MOLM14 D835Y IC50
MOLM14 F691L cells = test: cells; type: cell-based; details: 48 hours, Cell Titer Glo, read-out: MOLM14 F691L IC50
FLT3 [1] = molecular target: T1, FLT3 (Homo sapiens, UniProt P36888); test: RBC HotSpot Kinase Assay, FLT3
T1 sequence (P36888 610-943 limits assumed): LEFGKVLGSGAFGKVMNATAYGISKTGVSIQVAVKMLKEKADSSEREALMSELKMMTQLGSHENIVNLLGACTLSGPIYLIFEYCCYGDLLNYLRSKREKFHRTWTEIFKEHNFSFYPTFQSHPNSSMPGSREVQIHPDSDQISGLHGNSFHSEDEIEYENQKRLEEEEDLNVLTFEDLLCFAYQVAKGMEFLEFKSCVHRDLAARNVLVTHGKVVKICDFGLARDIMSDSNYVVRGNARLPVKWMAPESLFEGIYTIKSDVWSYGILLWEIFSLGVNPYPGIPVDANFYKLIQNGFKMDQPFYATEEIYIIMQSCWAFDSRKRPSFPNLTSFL

IRAK1 = IRAK1 (Homo sapiens, UniProt P51617); test: RBC HotSpot Kinase Assay, IRAK1; details: IRAK1 IC50
IRAK4 [2] = molecular target: T2, IRAK4 (Homo sapiens, UniProt Q9NWZ3); test: RBC HotSpot Kinase Assay, IRAK4; details: IRAK4 IC50
T2 sequence (Q9NWZ3 1-460): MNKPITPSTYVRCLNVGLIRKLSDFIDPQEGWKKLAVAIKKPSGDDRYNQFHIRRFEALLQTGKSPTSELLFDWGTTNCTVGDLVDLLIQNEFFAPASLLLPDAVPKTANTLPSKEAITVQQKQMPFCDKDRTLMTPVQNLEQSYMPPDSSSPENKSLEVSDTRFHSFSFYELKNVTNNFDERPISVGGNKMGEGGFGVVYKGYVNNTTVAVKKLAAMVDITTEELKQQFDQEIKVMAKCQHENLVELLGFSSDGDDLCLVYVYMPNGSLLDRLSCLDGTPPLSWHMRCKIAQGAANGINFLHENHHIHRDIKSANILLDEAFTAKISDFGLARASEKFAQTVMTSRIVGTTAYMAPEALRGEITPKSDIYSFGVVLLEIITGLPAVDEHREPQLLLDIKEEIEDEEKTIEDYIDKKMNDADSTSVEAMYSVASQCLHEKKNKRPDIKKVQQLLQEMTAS

FLT3 [3] = molecular target: T3, FLT3 (Homo sapiens, UniProt P36888); test: Reaction Biology NanoBRET target engagement assay in HEK-293 cells, FLT3
T3 sequence (P36888 27-993): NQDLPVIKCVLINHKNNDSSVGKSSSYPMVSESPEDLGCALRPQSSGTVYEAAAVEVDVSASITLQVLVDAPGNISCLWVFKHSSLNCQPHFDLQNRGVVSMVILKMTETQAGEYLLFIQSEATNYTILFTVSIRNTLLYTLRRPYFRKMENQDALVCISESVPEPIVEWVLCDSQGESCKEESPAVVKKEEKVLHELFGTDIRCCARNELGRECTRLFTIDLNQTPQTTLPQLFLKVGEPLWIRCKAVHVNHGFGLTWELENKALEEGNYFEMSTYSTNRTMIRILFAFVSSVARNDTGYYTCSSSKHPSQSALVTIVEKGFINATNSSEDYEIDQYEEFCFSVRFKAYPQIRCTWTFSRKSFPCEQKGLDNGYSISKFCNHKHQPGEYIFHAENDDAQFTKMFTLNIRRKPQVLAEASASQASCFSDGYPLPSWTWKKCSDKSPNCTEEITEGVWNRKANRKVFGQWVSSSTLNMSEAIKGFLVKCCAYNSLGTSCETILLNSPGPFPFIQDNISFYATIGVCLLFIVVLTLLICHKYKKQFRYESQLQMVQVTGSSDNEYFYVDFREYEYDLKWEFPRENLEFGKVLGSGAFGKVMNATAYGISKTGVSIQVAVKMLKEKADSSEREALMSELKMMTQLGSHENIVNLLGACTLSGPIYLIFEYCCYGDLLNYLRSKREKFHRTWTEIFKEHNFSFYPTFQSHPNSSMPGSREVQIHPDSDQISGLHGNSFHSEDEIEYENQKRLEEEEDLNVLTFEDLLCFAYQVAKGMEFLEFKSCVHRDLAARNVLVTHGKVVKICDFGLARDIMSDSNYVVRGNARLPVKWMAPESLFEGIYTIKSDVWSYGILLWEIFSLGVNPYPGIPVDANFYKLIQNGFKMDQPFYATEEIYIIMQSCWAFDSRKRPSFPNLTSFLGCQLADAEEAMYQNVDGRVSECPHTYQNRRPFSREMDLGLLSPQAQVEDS

IRAK4 [4] = molecular target: T2, IRAK4; test: Reaction Biology NanoBRET target engagement assay in HEK-293 cells, IRAK4; details: NanoBRET IRAK4 IC50, HEK-293 cells
[5] = NanoBRET FLT3 IC50, HEK-293 cells

Sequence of IRAK1 (P51617 whole entry): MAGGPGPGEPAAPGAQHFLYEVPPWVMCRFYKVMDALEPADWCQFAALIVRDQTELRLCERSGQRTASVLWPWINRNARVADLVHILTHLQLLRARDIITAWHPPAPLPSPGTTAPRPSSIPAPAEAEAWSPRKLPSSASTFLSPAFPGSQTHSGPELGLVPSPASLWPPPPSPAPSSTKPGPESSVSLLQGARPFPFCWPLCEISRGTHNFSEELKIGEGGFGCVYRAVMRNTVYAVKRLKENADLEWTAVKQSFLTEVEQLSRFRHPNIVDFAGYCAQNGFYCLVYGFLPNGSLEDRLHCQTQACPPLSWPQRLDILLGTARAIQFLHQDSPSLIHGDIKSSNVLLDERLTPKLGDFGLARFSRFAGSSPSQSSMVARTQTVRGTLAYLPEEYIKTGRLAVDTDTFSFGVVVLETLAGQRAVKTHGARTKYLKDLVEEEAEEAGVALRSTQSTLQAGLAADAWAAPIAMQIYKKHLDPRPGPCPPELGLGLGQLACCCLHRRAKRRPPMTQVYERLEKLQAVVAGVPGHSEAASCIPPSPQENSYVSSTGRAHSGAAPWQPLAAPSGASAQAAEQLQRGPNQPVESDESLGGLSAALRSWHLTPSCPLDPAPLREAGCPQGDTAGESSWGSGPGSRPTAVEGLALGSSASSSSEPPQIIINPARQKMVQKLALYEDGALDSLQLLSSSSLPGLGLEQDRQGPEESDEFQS

SMILES | IC50 (MOLM14 D835Y cells; Homo sapiens, MOLM-14, 48 h) [nM] | IC50 (MOLM14 F691L cells; Homo sapiens, MOLM-14, 48 h) [nM] | IC50 (FLT3 [1]; FLT3 IC50) [nM] | IC50 (IRAK1) [nM] | IC50 (IRAK4 [2]) [nM] | IC50 (FLT3 [3]; [5]) [nM] | IC50 (IRAK4 [4]) [nM] | IC50 (MOLM14 D835Y cells) [nM] | IC50 (MOLM14 F691L cells) [nM] | IC50 (FLT3 [1]; read-out: FLT3 IC50) [nM] | IC50 (FLT3 [3]) [nM]
FC(F)Oc1ccn2c(-c3cncc(N[C@H]4CNCC[C@@H]4F)n3)cnc2c1 [Compound 15, 6-(7-(difluoromethoxy)imidazo [1,2-a]pyridin-3-yl)-N-((3S,4S)-4-fluoropiperidin-3-yl)pyrazin-2-amine] | 77 | 154 | < 0.5 | 69 | 4 | 367 | 10 | – | – | – | –
CC(O)(c1cn2c(-c3ccnc(N[C@@H]4CCCNC4)n3)cnc2cn1)C(F)(F)F (single isomer, unassigned) [Compound 68] | – | – | – | 7 | 4 | – | 3 | 86 | 545 | < 0.5 | 388
CC(C)Oc1ccn2c(-c3ccnc(N[C@@H]4CCCNC4)n3)cnc2c1 [Compound 26, (R)-4-(7-isopropoxyimidazo[1,2-a]pyridin-3-yl)-N-(piperidin-3-yl)pyrimidin-2-amine] | 19 | 168 | < 0.5 | 53 | 2 | 2 | < 0.5 | – | – | – | –
CC(O)(c1cn2c(-c3ccnc(N[C@H]4CNC[C@@H]4F)n3)cnc2cn1)C(F)(F)F (single isomer, unassigned) [Compound 69] | – | 1220 | < 0.5 | 27 | 1 | 1950 | 24 | 193 | – | – | –
CC(C)Oc1ccn2c(-c3ccnc(N[C@H]4CNC[C@@H]4F)n3)cnc2c1 [Compound 25, N-((3S,4S)-4-fluoropyrrolidin-3-yl)-4-(7-isopropoxyimidazo[1,2-a]pyridin-3-yl)pyrimidin-2-amine] | 53 | 596 | 0.8 | 24 | 3 | 34 | < 0.5 | – | – | – | –
CC(O)(c1cn2c(-c3cncc(N[C@H]4CNCC[C@@H]4F)n3)cnc2cn1)C(F)(F)F (single isomer, unassigned) [Compound 76] | – | 686 | < 0.5 | 8 | 2 | 3860 | 19 | 486 | – | – | –
CC(C)(O)c1ccc2ncc(-c3ccnc(N[C@H]4CNCC[C@@H]4F)n3)n2c1 [Compound 42, 2-(3-(2-(((3S,4S)-4-fluoropiperidin-3-yl)amino)pyrimidin-4-yl)imidazo[1,2-a]pyridin-6-yl)propan-2-ol] | – | – | < 0.5 | 158 | 4 | 137 | 2 | – | – | – | –
FC(F)COc1ccn2c(-c3cncc(N[C@H]4CNCC[C@@H]4F)n3)cnc2c1 [Compound 9, 6-(7-(2,2-difluoroethoxy)imidazo[1,2-a]pyridin-3-yl)-N-((3S,4S)-4-fluoropiperidin-3-yl)pyrazin-2-amine] | 19 | 31 | < 0.5 | 65 | 1 | 22 | < 0.5 | – | – | – | –
COc1cc2ncc(-c3cncc(N[C@H]4CNCC[C@@H]4F)n3)n2cc1C(C)(C)O [Compound 21, 2-(3-(6-(((3S,4S)-4-fluoropiperidin-3-yl)amino)pyrazin-2-yl)-7-methoxyimidazo[1,2-a]pyridin-6-yl)propan-2-ol] | 27 | 34 | < 0.5 | 0.5 | < 0.5 | 159 | < 0.5 | – | – | – | –
F[C@H]1CCNC[C@@H]1Nc1nccc(-c2cnc3cc(OC4CC4)ccn23)n1 [Compound 39, 4-(7-cyclopropoxyimidazo [1,2-a]pyridin-3-yl)-N-((3S,4S)-4-fluoropiperidin-3-yl)pyrimidin-2-amine] | 24 | 172 | < 0.5 | 11 | 2 | 15 | 0.8 | – | – | – | –
